Experiments:
Vδ2 γδ T-cells [1] = experiment: Functional assay with pretreated CD20 positive B-cell lines (CD107a read-out); format: cell-based, human; settings: all tested B-cell lines (Raji, HG-3, MEC-1, SU-DHL-4, SU-DHL-8)
Vδ2 γδ T-cells [2] = experiment: Functional assay with pretreated MOLM-13 or Raji cells, different DAR (CD107a); format: cell-based, human
Protocol: The functional assay was performed as disclosed in Example 23, with the exception that Raji and MOLM-13 cells were pretreated for 16 or 40 hours with antibodies/ADCs/controls (Table 13). Furthermore, CD107a degranulation levels were determined only and not IFNγ expression levels. Thus, on the third experimental days, cells were directly analyzed on the BD FACSymphony A3 Cell analyzer (BD Biosciences, San Jose, CA, USA), before incubation with BD Perm/wash. […] EC50 values were calculated in GraphPad Prism as the concentration in μg/mL that gives a response half way between bottom and top of the curve. […] Raji cells were cultured as described in Example 23. The CD123-positive acute monocytic leukemia cell line MOLM-13 (DSMZ, ACC 554, the German collection of Microorganisms and cell cultures GmbH (Leibniz Institute, Germany)) was cultured in CGM and was maintained at 37° C. in a humidified incubator containing 5% CO2 and sub-cultured twice a week.

Vδ2 γδ T-cells [3] = experiment: Functional assay with pretreated HER2-positive cell lines; format: cell-based, human; settings: pretreated HCT-116 cells (low HER2)
Vδ2 γδ T-cells [4] = experiment: Functional assay: Vδ2 γδ T-cell activation (CD107a, IFNγ, TNFα) after co-culture of PBMCs with pretreated Raji cells; format: cell-based, human; settings: for IFNγ production and degranulation of Vδ2 γδ T-cells compared to pretreatment with HMBPP: pre-treated Raji cells; for IFNγ production and degranulation (CD107a) of Vδ2 γδ T-cells, in words: pretreated Raji cells co-cultured with PBMCs
Protocol: (§1) To determine (unconjugated) phosphoantigen prodrug activity, Raji target cells were pre-incubated with XC1 and XD1, prior to co-culture with peripheral blood mononuclear cells (PBMCs) containing effector cells. Selective gammadelta T-cell activation was studied in vitro after co-culture of PBMCs with tumor cells (from the CD20-positive Burkitt's Lymphoma human tumor cell line Raji) pretreated with phosphoantigen HMBPP, phosphoantigen prodrugs XC1, XD1, or the conjugates listed in Table 1.
(§2) The CD20-positive Burkitt's Lymphoma human tumor cell line Raji (DSMZ, the German collection of Microorganisms and cell cultures GmbH (Leibniz Institute, Germany)) was used for in vitro experiments. Raji cells were cultured in complete growth medium (CGM): RPMI-1640 (Lonza, Walkersville, MD, USA) supplemented with 10% Heat-inactivated (HI) Fetal Bovine Serum (FBS) (Gibco-Life Technologies; Carlsbad, CA) and 80 U/mL Penicillin-Streptomycin solution (Lonza Group Ltd, Basel Switzerland). Raji cells were maintained at 37° C. in a humidified incubator containing 5% CO2 and sub-cultured twice a week.
For stimulation with conjugates according to the invention (ADCs), unconjugated phosphoantigen prodrugs and HMBPP, Raji cells were harvested, diluted to a concentration of 5×10^6 cells/mL and 50 μL (equivalent to 250.000 cells/well) of this cell suspension was seeded into a 96-well plate. A 2-times concentrated, 10-fold serial dilution of the prodrugs and ADC was prepared in CGM. Plated Raji cells were incubated overnight (O/N) in a humidified incubator with 5% CO2 at 37° C. with 50 μL/well of the serially-diluted compounds.
The following day, the 96 well plate with Raji cells and compounds (ADCs, unconjugated phosphoantigen prodrugs or HMBPP) was washed by adding 100 μL/well CGM, centrifugation at 300×g for 3 minutes at room temperature (RT), and removal of supernatant in order to remove excessive unbound compound.
As a source of immune cells, frozen peripheral blood mononuclear cells (PBMCs) of a healthy human donor were thawed, resuspended in CGM and placed O/N in a humidified incubator with 5% CO2 at 37° C. to let the cells recover.
The recovered PBMCs were harvested, counted and diluted to a concentration of 10×10^6 cells/mL in CGM, and 50 μL/well (equivalent to 0.5×10^6 cells/well) was added to the Raji cells. […] In all experiments, 1% Phytohemagglutinin (PHA-M, Gibco-ThermoFisher), known as an aspecific activator of immune cells, was also included in a well to serve as a positive control. Samples were incubated for 6 hours in a humidified incubator with 5% CO2 at 37° C. […]

[5] = test system: NK cells, CD8+ T-cells, Vδ1 γδ T-cells; experiment: Functional assay: activation of other immune cells after co-culture of PBMCs with pretreated Raji cells; format: cell-based, human; settings: pretreated Raji cells co-cultured with PBMCs; PHA-M added to co-culture
Protocol: as §1
as §2, with “week. […]” for “week.”
The recovered PBMCs were harvested, counted and diluted to a concentration of 10×10^6 cells/mL in CGM, and 50 μL/well (equivalent to 0.5×10^6 cells/well) was added to the Raji cells. […]

Raji cells [6] = experiment: Cellular binding to Raji cells (flow cytometry); parameters: species or system human
Protocol: Raji cells were cultured as described in Example 23. […] After an incubation time of 30 minutes at 4° C., the cells were washed twice with ice-cold FACS buffer. […] After 30 minutes at 4° C., cells were washed twice and resuspended in 150 μL ice-cold FACS buffer. Fluorescence intensities were determined by flow cytometry using the FACSVerse or FACSymphony (BD Biosciences) and indicated as the median fluorescence intensity (MFI). Curves were fitted by nonlinear regression with a variable slope (four parameters) in GraphPad Prism version 9. EC50 values were calculated in GraphPad Prism as the concentration in μg/mL that gives a response halfway between bottom and top of the curve. Binding experiments were performed N=2 or N=3 times.

Raji cells [7] = experiment: Direct compound-related cell death (CellTiter-Glo, 6 days); format: cell-based, human; settings: 6 days incubation, positive control
Protocol: Metabolic activity was assessed after 6 days, using the CellTiter-Glo™ (CTG) luminescent assay kit from Promega Corporation (Madison, WI) according to the manufacturer's instructions. Cell viability was expressed as the percentage survival relative to the average mean of untreated cells or vehicle-treated cells (only growth medium or 1% DMSO) multiplied with 100. The efficacy was calculated by subtracting the bottom of the dose response curve (DRC) from 100%.

[8] = target: T1, CD20 on Raji cells (CD20-positive Burkitt's Lymphoma human tumor cell line) (human, UniProt P11836 1-297); experiment: flow cytometry on CD20-positive Raji cells, APC anti-human IgG F(ab')2 secondary, MFI curve fit; experiment 3 and 4
T1 construct: whole, on cells
T1 sequence (looked up): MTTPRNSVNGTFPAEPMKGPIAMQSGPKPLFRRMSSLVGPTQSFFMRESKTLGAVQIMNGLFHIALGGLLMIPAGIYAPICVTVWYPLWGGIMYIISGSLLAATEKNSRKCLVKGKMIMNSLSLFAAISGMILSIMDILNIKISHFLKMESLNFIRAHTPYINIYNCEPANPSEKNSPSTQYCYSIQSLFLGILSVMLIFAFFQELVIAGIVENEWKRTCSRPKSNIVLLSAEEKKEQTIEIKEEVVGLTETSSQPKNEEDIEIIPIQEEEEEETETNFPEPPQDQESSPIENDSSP

[9] = target: T1, CD20 on Raji cells (CD20-positive …); experiment: flow cytometry on CD20-positive Raji cells, APC anti-human IgG F(ab')2 secondary, MFI curve fit; experiment 1 and 2
[10] = target: T1, CD20 on Raji cells (CD20-positive …); experiment: flow cytometry on CD20-positive Raji cells, APC anti-human IgG F(ab')2 secondary, MFI curve fit; experiment 5, 6 and 7

C/C(=C\COP(=O)(O)OP(=O)(O)O)CO [HMBPP, (E)-4-Hydroxy-3-methyl-but-2-enyl pyrophosphate]
activation (degranulation) of Vδ2 γδ T-cells, in words (Vδ2 γδ T-cells [1]): induced degranulation of Vδ2 γδ T-cells
Vδ2 γδ T-cell activation, in words (Vδ2 γδ T-cells [2]): capable of activating Vδ2 γδ T-cells
activation of Vδ2 γδ T-cells, in words (Vδ2 γδ T-cells [3]): able to activate Vδ2 γδ T-cells

C/C(=C\CCP(=O)(N[C@@H](C)C(=O)OCc1ccccc1)Oc1ccccc1)CO (stereo partly shown) [XD1]
IFNγ production and degranulation of Vδ2 γδ T-cells compared to pretreatment with HMBPP (Vδ2 γδ T-cells [4]): more potently induced
IFNγ production and degranulation (CD107a) of Vδ2 γδ T-cells, in words (Vδ2 γδ T-cells [4]): dose-dependently induced IFNγ production and degranulation
activation of other immune cells (NK cells, CD8+ T-cells, Vδ1 γδ T-cells), in words [5]: without inducing direct activation of other immune cells

rituximab: Anti-CD20 monoclonal antibody (MoAb) [reference compound]
Binding to Raji cells EC50 (Raji cells [6]; Experiment 1 and 2): 0.6 µg/mL
Binding to Raji cells EC50 (Raji cells [6]; Experiment 3 and 4): 1.221 µg/mL
Binding to Raji cells EC50 (Raji cells [6]; Experiment 5, 6 and 7): 3.451 µg/mL

C/C(=C\CCP(=O)(OCOC(=O)C(C)(C)C)OCOC(=O)C(C)(C)C)CO [XC1]
IFNγ production and degranulation of Vδ2 γδ T-cells compared to pretreatment with HMBPP (Vδ2 γδ T-cells [4]): more potently induced
IFNγ production and degranulation (CD107a) of Vδ2 γδ T-cells, in words (Vδ2 γδ T-cells [4]): dose-dependently induced IFNγ production and degranulation
activation of other immune cells (NK cells, CD8+ T-cells, Vδ1 γδ T-cells), in words [5]: without inducing direct activation of other immune cells

COC(=O)c1cc2c([nH]1)C(=O)C=C1N(C(=O)c3cc4cc(OC)c(OC)c(OC)c4[nH]3)C[C@H]3C[C@]123 [duocarmycin type toxin]
direct compound related cell death, in words (Raji cells [7]): very effective

B1: rituximab (anti-CD20 monoclonal antibody) (antibody, V domains shown)
VH: QVQLQQPGAELVKPGASVKMSCKASGYTFTSYNMHWVKQTPGRGLEWIGAIYPGNGDTSYNQKFKGKATLTADKSSSTAYMQLSSLTSEDSAVYYCARSTYYGGDWYFNVWGAGTTVTVSA
VL: QIVLSQSPAILSASPGEKVTMTCRASSSVSYIHWFQQKPGSSPKPWIYATSNLASGVPVRFSGSGSGTSYSLTISRVEAEDAATYYCQQWTSNPPTFGGGTKLEIK
EC50 [8]: 1.22 µg/mL
EC50 [9]: 0.6 µg/mL
EC50 [10]: 3.45 µg/mL

Reference: patent publication US20240261426A1, “CONJUGATES COMPRISING PHOSPHOANTIGENS AND THEIR USE IN THERAPY” (BYONDIS B.V., priority 2021, published 2024)
